What was measured:
[1] = system: spontaneous uterine contractions; assay: Inhibition of spontaneous uterine contractions in anesthetized late-term pregnant rat; assay type: in vivo; conditions: oral, 10, 30 or 60 mg/kg; at any time during the 170-180 minutes observation
Text: Late-term pregnant (certified at days 19-21 of pregnancy) Sprague Dawley CD (SD) BR female rats (Charles River, Calco, Italy), weighing 350-400 g were anesthetized with urethane (1.05 g/kg, i.p.) and placed on a homeothermic operating table. A midline incision at the hypogastrium level was made, one pregnant uterine horn exposed and its tubal end (near the ovary) was closed by a ligature with surgical silk. […] After the surgical preparation, a 30-min stabilization period was observed and then the effects of increasing doses of compounds of the present invention (given as 10-min i.v. infusion, bolus i.v. or p.o.) were evaluated by measuring the resulting uterine contractions. For the i.v. administration (infusion or bolus) the uterine contractile activity was quantified by calculating the AUC during the 10-min injection period. The percent variation of the AUC values relative to the spontaneous uterine response observed after each compound administration was calculated in comparison to the value recorded before the first dose-administration (basal value). The effect of test compounds of the present invention was evaluated by comparing pre- and post-treatment luminal uterine pressure values. […] Statistical differences between treatment groups at each time-point were determined by using one-way ANOVA followed by Tukey test. […]

[2] = In vivo stability: isomeric interconversion after single oral and intravenous doses in rats; design: species or system rat; conditions: female rats
Experimental: The animals used in this study were Sprague-Dawley, Crl: CD®BR albino rats. All animals were supplied by Charles River UK Ltd (Margate, Kent, UK). Animals were in the weight range 200-260 g and were approximately 2 months old. Rats were given a unique identity number and were identified by unique tail markings plus cage location.
The dose groups were as follows: 4 female were given an oral dose and 4 female were given an intravenous dose.
(§1) Dose formulations were prepared in an appropriate matrix; intravenous doses were prepared in NP3S, whilst oral doses were prepared in Labrasol:water (1:1 v/v).

[3] = Isomeric interconversion in dose formulations (HPLC); assay type: physicochemical; conditions: oral (Labrasol:water 1:1) and intravenous (NP3S) dose formulations, pre- and post-dose
Experimental: as §1

[4] = Qualitative solubility/crystallisation tests on 15 mg scale; assay type: physicochemical
vasopressin V1a receptor = vasopressin V1a receptor (Homo sapiens, UniProt P37288); assay: Binding to vasopressin V1a receptor; conditions: read-out: inhibition constant Ki to the vasopressin V1a receptor
Sequence of vasopressin V1a receptor (P37288 whole entry, species assumed): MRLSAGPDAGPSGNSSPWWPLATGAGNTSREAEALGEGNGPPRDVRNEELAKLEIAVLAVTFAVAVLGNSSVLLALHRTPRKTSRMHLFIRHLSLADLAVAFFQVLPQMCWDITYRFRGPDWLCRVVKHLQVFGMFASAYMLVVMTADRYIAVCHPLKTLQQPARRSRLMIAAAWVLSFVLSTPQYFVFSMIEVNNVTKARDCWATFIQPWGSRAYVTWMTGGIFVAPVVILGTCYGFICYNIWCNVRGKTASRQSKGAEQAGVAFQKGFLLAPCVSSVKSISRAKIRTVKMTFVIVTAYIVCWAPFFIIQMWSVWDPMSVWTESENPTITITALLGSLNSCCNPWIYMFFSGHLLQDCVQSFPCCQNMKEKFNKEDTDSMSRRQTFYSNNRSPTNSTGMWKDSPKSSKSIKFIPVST

Row | Compound | inhibition of uterine contraction [1] | [14C]-E-isomer present in plasma ([2]; 30 mg/kg oral or intravenous, plasma collected up to 6 hours) | isomeric interconversion in vivo ([2]; 30 mg/kg, after oral or intravenous dose administration) | interconversion to E-isomer during dose preparation or administration [3] | Qualitative solubility, Dissolves in: ([4]; DIPE, hot) | Qualitative solubility, Dissolves in: ([4]; IPA, hot) | Qualitative solubility, Dissolves in: ([4]; MIBK, hot) | Qualitative solubility, Dissolves in: ([4]; THF, cold) | Qualitative solubility, Comment ([4]; heptanes) | Qualitative solubility, Dissolves in: ([4]; tBuOH, hot) | Qualitative solubility, Dissolves in: ([4]; toluene, cold) | Ki (vasopressin V1a receptor)
1 | CO/N=C1\C[C@@H](CO)N(C(=O)c2ccc(-c3ccccc3C)cc2)C1 [(3E,5S)-5-(hydroxymethyl)-1-[(2′-methyl-1,1′-biphenyl-4-yl)carbonyl]pyrrolidin-3-one O-methyloxime] | no inhibition |  |  |  |  |  |  |  |  |  |  | 
2 | CO/N=C1/C[C@@H](CO)N(C(=O)c2ccc(-c3ccccc3C)cc2)C1 [(3Z,5S)-5-(hydroxymethyl)-1-[(2′-methyl-1,1′-biphenyl-4-yl)carbonyl]pyrrolidin-3-one O-methyloxime] |  | no evidence | no detectable isomeric interconversion | no detectable interconversion | 40 vol hot | 4 vol hot | 4 vol hot | 4 vol cold | insoluble in 20 vol | 6 vol hot | 2 vol cold | 120 nM

Reference: US20160221944A1, “PYRROLIDINE DERIVATIVES AS OXYTOCIN/VASOPRESSIN V1a RECEPTORS ANTAGONISTS” (ObsEva S.A., priority 2013, published 2016)
